Source: patent US6537545B1, “Use of corneal hardening agents in enzymeorthokeratology” (ISTA Pharmaceuticals, Inc., priority 1998, dated 2003)

Columns and labels:
Assay type in all cases: in vivo
Dutch Belted rabbit eyes [1] = experiment: Histopathology of eyes after corneal scraping (Example 2); settings: one of the four glyceraldehyde treated eyes; presumably due to scraping
Protocol: The study animals were sacrificed on Study Day 74 with an intravenous injection of pentobarbital (2 mg/kg). Eyes from the study animals were enucleated immediately post-sacrifice and placed in labeled tubes containing approximately 5 mL of half-strength Kamovsky's fixative (2.5% glutaraldehyde, 2.5% paraformaldehyde, 2.5 mM CaCl2, 100 mM Na Cacodylate, pH 7.4) for approximately 1 hour. The eyes were removed and small windows (1×3 mm) were made in the cornea/iris to allow penetration of the fixative to the vitreous. The eyes were then placed in 25 mL of fresh fixative. The fixed eyes were then sent to Consolidated Veterinary Diagnostics, Inc. (West Sacramento, Calif.) where they underwent routine tissue processing, sectioning, and staining with hematoxylin/eosin. They were examined by a Board Certified Veterinary Pathologist.
The eyes which had undergone corneal scraping and a subsequent healing period were sent to Consolidated Veterinary Diagnostics for tissue processing and pathologic interpretation. In toto, 4 eyes from the glyceraldehyde treated group and 2 eyes from the BSS group were evaluated. […] This description would imply a response to injury (presumably the scraping).

Dutch Belted rabbit eyes [2] = experiment: GLP safety study, histopathology (Example 3); settings: rarely noted in both glyceraldehyde and saline treated groups; Study Day 40
Excerpt: On Study Day 40, after 32 days of drops, the animals were sacrificed and the eyes were harvested according to the methods described in Experiment 2. The eyes were fixed in half-strength Karnovsky's fixative as described in Experiment 2 and sent to a Board Certified Veterinary Pathologist for interpretation.

[3] = tested on: eyes of non-sighted human patients; experiment: Safety of non-enzymatic corneaplasty and topical 3% glyceraldehyde in five non-sighted human patients (Example 5); settings: lenses 7 days, then 3% glyceraldehyde plus lenses 28 days, only minor incidents of SPK
Protocol: In this study five non-sighted patients with good corneas were treated with contact lenses and a 3% glyceraldehyde solution to determine the safety of this procedure. Here, the patients were fitted with and wore contact lenses for seven (7) days. Following this period a 3% glyceraldehyde solution (described above) was applied to the eyes and the contact lens wear continued for twenty-eight (28) days. After this period both the contact lens wear and the glyceraldehyde treatment ceased.
The patients were individually examined for the effects of the treatments following removal of the lenses and cessation of the glyceraldehyde treatment. The first examination was on the last day of treatment, and five (5) subsequent examinations were administered over a one month period.

[4] = tested on: eye of myopic human patient; experiment: Safety and efficacy of hyaluronidase and topical 3% glyceraldehyde solution, myopia in a human patient (Example 8); settings: 50 IU hyaluronidase, lenses, 3% glyceraldehyde drops 15 days; monitored 196 days
Protocol: In this study, a single subject was selected to test the safety and efficacy of using hyaluronidase and a glyceraldehyde solution to treat sub-optimal visual acuity. In this study, the subject was first medically evaluated and a baseline was established. A medical history of the subject was taken and a detailed examination of the subject's eyes was also performed. The subject's eyes were tested to determine: refraction, cell count, intraocular pressure (IOP), pachymetry, corneal topography and corneal elasticity. A slit-lamp examination was also performed to establish the health of the eyes. Also, the presence of any general or ocular discomfort of the subject was noted.
Following the establishment of a baseline reading (UVA 20/300), the subject was administered a single intrastromal injection of 50 IU hyaluronidase prior to the orthokeratology treatment. Following 7 days of incubation of the subject's eyes with the injected material, the subject was fitted with corrective contact lenses for overnight wear. The subject wore the corrective lenses day and night for a period of seven (7) days. At this point the subject's visual acuity was 20/15. […] The visual acuity of the subject was then monitored for 196 days to determine the effect of the treatment on the unaided visual acuity of the subject;

[5] = tested on: eyes of myopic human subjects; experiment: Mild myopia study, group III: corrective lenses and 3% glyceraldehyde without hyaluronidase (Example 9); settings: for UVA at follow-up after end of treatment: no hyaluronidase
Excerpt: Given the favorable results obtained in Example 8, an additional study was undertaken to test the safety and efficacy of the method of the present invention using a larger group of subjects. In this study, a group of subjects were selected and randomly separated into three test groups to test the safety and efficacy of using hyaluronidase and a glyceraldehyde solution for treating subjects with sub-optimal visual acuity. Groups one and two received an intrastromal injection of hyaluronidase (50 and 500 IU, respectively), while group three received a control injection of saline.
Following a two week incubation period after the injection, the three groups were fitted with corrective lenses to optimize the visual acuity of the subjects. The corrective lenses were left in place for a period of time sufficient to alter the shape of the subjects' eyes so as to achieve an optimal visual acuity. This period of time was generally 2 days in length. Once an acceptable visual acuity was achieved, the subjects in the three groups received a topical 3% glyceraldehyde solution in the form of ophthalmic drops four times per day while wearing the corrective lenses. The glyceraldehyde treatment was generally administered for one month. Lens wear occurred from 8 to 12 hours during the day.
At the end of the treatment period both the lens wear and the glyceraldehyde solution administration was terminated. The general health and visual acuity of the subjects was monitored from 3 to 5 months following treatment termination.
As with groups I and II, the test subjects were examined initially to establish a baseline from which the future results of the treatment were compared. Following the establishment of a baseline reading, group III subjects were fitted with contact lenses and wore the corrective lenses at night for a period of two (2) to seven (7) days or until an acceptable visual acuity (approximately 20/20) was achieved. Unlike groups I and II, group III test subjects in this group received no injection of hyaluronidase during the course of treatment. Subjects achieving an acceptable visual acuity received the topical 3% glyceraldehyde solution in the form of ophthalmic drops four times per day (08:00, 12:00, 16:00, and 20:00) for a period of 1 month in conjunction with daytime lens wear for stabilization. During this period, lens wear occurred for approximately 8-12 hours per day and there was no nocturnal lens wear.
The subjects were examined periodically during the glyceraldehyde treatment to monitor changes in the health of the treated eyes.
At the end of the treatment period, the stabilizing lens were removed and the administration of the 3% glyceraldehyde solution was terminated. Following termination of the treatment, the subjects were examined immediately after treatment was terminated, once a week for the first four weeks after termination, and then monthly to measure changes in the visual acuity of the treated eyes. The health of the eye was also monitored. Sequelae characterized by the appearance or worsening of serious ocular symptoms or slit-lamp findings observed during these examinations was assessed. The proportions of subjects with such findings were analyzed.
The visual acuity values shown are obtained using the Snellen letters test and the Early Treatment Diabetic Retinopathy Study (ETDRS) protocol. The table values shown are the better values as compared between the results of the two methods. The subjects' baseline visual acuity ranged from 20/80 to 20/300.

[6] = tested on: eyes of myopic human subjects; experiment: as above; settings: no hyaluronidase; subject 011; three month follow-up point; baseline 20/20

SMILES: O=CC(O)CO (centres unmarked) [glyceraldehyde]
- pathologic finding in eyes after scraping and healing (Dutch Belted rabbit eyes [1]): superficial scar in the corneal stroma and disruption of Bowman's membrane
- histopathology: focal increase in cellularity of corneal stroma, reduplication of Descemet's membrane, relation to treatment (Dutch Belted rabbit eyes [2]): not associated with treatment with the drops
- corneal findings in all patients [3]: Normal corneas
- duration of correction of unaided visual acuity [4]: more than six months
- overall effect on retention of orthokeratology benefits ([5]; glyceraldehyde treatment in the absence of hyaluronidase): effective in extending the retention time
- UVA at follow-up after end of treatment ([5]; subject 005, four month time point, baseline 20/100): 20/100
- UVA at follow-up after end of treatment ([5]; subject 006, five month time point, baseline 20/200): 20/100
- UVA at follow-up after end of treatment ([5]; subject 012, four month time point, baseline 20/200): 20/100
- UVA at follow-up after end of treatment ([5]; subject 014, three month time point, baseline 20/80): 20/50
- UVA at follow-up after end of treatment ([5]; subject 016, four month time point, baseline 20/300): 20/80
- UVA at follow-up after end of treatment ([5]; subject 016, three month point, baseline 20/300): 20/60
- UVA at follow-up after end of treatment ([5]; subject 021, two month time point, baseline 20/80): 20/60
- UVA at follow-up after end of treatment ([5]; subject 032, two month time point, baseline 20/120): 20/60
- UVA at follow-up after end of treatment [6]: 20/40
